Assays:
[1] = Toxicity (drug death, body weight loss, HNTD) in C51 tumor-bearing BALB/c mice; type: in vivo
Text: The animals are observed every day.
Toxicity was declared at dosages inducing≥20% body weight loss or≥10% drug death

colon adenocarcinoma C51 = experiment: Antitumor efficacy against colon adenocarcinoma C51 grafted in BALB/c mice (T/C, T-C, log cell kill)
Procedure: This efficacy may be quantified, for example, by the log10 cell kill, which is determined according to the following formula:
A product is considered to be active if log10 cell kill is greater than or equal to 0.7. A product is considered to be very active if log10 cell kill is greater than or equal to 2.8.
The combination will manifest therapeutic synergy when the log10 cell kill is greater than the value of the log10 cell kill of the best constituent administered alone at its maximum tolerated dose (by at least 1 log cell kill).
The efficacy of the combinations on solid tumors may be determined experimentally in the following manner:
The animals subjected to the experiment, generally mice, are subcutaneously grafted bilaterally with 30 to 60 mg of a tumor fragment on day 0. The animals are implanted with a murine tumor grafted in the syngenic strain of mice of origin of the tumor, or by a rodent or human tumor xenografted in immunocompromized mice. Some days post tumor implantation, mice are randomized according to their body weight to the different groups of treatments and controls. The animals are observed every day. […] The groups are then weighed once or twice a week until the end of the trial.
The tumors are measured 1 to 5 times a week, depending on the tumor doubling time, until the tumor reaches approximately 2 g, or until the animal dies (if this occurs before the tumor reaches 2 g). The animals are necropsied immediately after euthanasia or death.
Cabazitaxel was weighed for each treatment and dissolved in ethanol. Treatment solutions were prepared first by mixing 1 volume of ethanolic stock solution and 1 volume of polysorbate 80, then by adding 18 volumes of glucose 5% in water. Cabazitaxel was administered intravenously on days 5, 12 (or 13) after tumor implantation.
The tumors of treatment (T) and control (C) groups were measured when the median of control group reached approximately 750 to 1400 mg. The median tumor weight of each group was determined.
Antitumor efficacy was determined by calculating the T/C value in percent: T/C (%)=Median tumor weight of the Treated/control×100
A T/C <10% is considered to indicate high antitumor activity and is the level used by NCI to justify further development (Decision Network-2 level, DN-2).
To better quantify the antitumor activity, another end point, the log cell kill, was used:

[2] = Phase I study: pharmacokinetics of cabazitaxel and cisplatin in patients; conditions: cisplatin 75 mg/m^2 followed by cabazitaxel
[3] = cisplatin dose 75 mg/m^2; value given with 'previously reported'; cited from earlier work
[4] = cabazitaxel alone 7.7 mg/kg/inj IV (total 15.4), days 5, 12
[5] = cabazitaxel alone 12.4 mg/kg/inj IV (total 24.8), days 5, 12
[6] = cabazitaxel alone 20.0 mg/kg/inj IV (total 40.0), days 5, 12
[7] = cabazitaxel alone 32.3 mg/kg/inj IV (total 64.6), days 5, 12
[8] = cisplatin alone 2.7 mg/kg/inj IV (total 5.4), days 5, 12

CO[C@H]1C(=O)[C@]2(C)[C@@H](OC)C[C@H]3OC[C@@]3(OC(C)=O)[C@H]2[C@H](OC(=O)c2ccccc2)[C@]2(O)C[C@H](OC(=O)[C@H](O)[C@@H](NC(=O)OC(C)(C)C)c3ccccc3)C(C)=C1C2(C)C [cabazitaxel, 4α-acetoxy-2α-benzoyloxy-5β,20-epoxy-1β-hydroxy-7β, 10β-dimethoxy-9-oxo-11-taxen-13α-yl (2R,3S)-3-tert-butoxycarbonylamino-2-hydroxy-3-phenylpropionate]
Drug death [1, 4]: 0/6
% Body weight change at nadir ([1]; cabazitaxel alone 7.7 mg/kg/inj IV (total 15.4), days 5, 12, nadir day 9): −6.8%
Drug death [1, 5]: 0/6
% Body weight change at nadir ([1]; cabazitaxel alone 12.4 mg/kg/inj IV (total 24.8), days 5, 12, nadir day 9): −8.1%
Drug death [1, 6]: 0/6
% Body weight change at nadir ([1]; cabazitaxel alone 20.0 mg/kg/inj IV (total 40.0), days 5, 12, nadir day 19): −14.6%
Comments [1, 7]: Toxic (6/6 DD)
Drug death [1, 7]: 6/6
highest nontoxic dose (HNTD) ([1]; cabazitaxel alone IV, days 5, 12 (total injected dose 40 mg/kg)): 20 mg/kg/inj
Comments (colon adenocarcinoma C51; [4]): Active
T-C in days (750 mg) (colon adenocarcinoma C51; [4]): 11.0 days
T/C in % on day 20 (colon adenocarcinoma C51; [4]): 5%
log10 cell kill gross (colon adenocarcinoma C51; [4]): 1.3
Comments (colon adenocarcinoma C51; [5]): Active
T-C in days (750 mg) (colon adenocarcinoma C51; [5]): 11.7 days
T/C in % on day 20 (colon adenocarcinoma C51; [5]): 3%
log10 cell kill gross (colon adenocarcinoma C51; [5]): 1.4
Comments (colon adenocarcinoma C51; [6]): HNTD active
T-C in days (750 mg) (colon adenocarcinoma C51; [6]): 15.2 days
T/C in % on day 20 (colon adenocarcinoma C51; [6]): 0%
log10 cell kill gross (colon adenocarcinoma C51; cabazitaxel alone 20.0 mg/kg/inj IV (total 40.0), days 5, 12 (HNTD)): 1.8

N.N.[Cl][Pt][Cl] [cisplatin]
effect of cabazitaxel on the PK of cisplatin (total and free) [2]: did not appear to alter
AUClast, free platinum [3]: 4170 ng·h/mL
AUClast, total platinum [3]: 45 820 ng.h/mL
Comments (colon adenocarcinoma C51; [8]): Active
T-C in days (750 mg) (colon adenocarcinoma C51; [8]): 15.1 days
T/C in % on day 20 (colon adenocarcinoma C51; [8]): 2%
log10 cell kill gross (colon adenocarcinoma C51; [8]): 1.8
T-C in days (750 mg) (colon adenocarcinoma C51; cisplatin alone […] IV (total 8.6), days 5, 12): 22.1 days

Reference: patent US20180153931A1 (Aventis Pharma S.A., priority 2011, published 2018)
